# Experimental data reported in US7271278B2, “Application of chromium-amino acid complexes in the treatment of diabetes and other diseases” (The University of Wyoming, priority 2005, dated 2007).
# Tested on: 3T3-adipocytes
# Assay: 2-deoxy-D-[3H] glucose uptake in 3T3-L1 adipocytes
# Type: cell-based, mouse
# Conditions: insulin 6 nM during differentiation
# Protocol: The 3T3-L1-pre-adipocytes were obtained from the American Type Culture Collection and were propagated at 37° C. in DMEM with 10% newborn calf serum plus 50 U/ml penicillin and 50 μg/ml streptomycin in an incubator under a humidified atmosphere of 5% CO2/95% air. Induction of differentiation was done one day post-confluence. Cells were maintained in differentiation medium of the following composition: DMEM, 10% FBS, […] dexamethasone, 0.5 mM 1-isobutyl-3-methylxanthine (IBMX) and ITS for three days. At day 3, the dexamethasone and IBMX were removed with ITS remaining on the cells for an additional two days. Differentiation was allowed to continue in DMEM supplemented with 10% FBS, ITS and the adipocytes were used between day 9 and 14 post-induction. Prior to the cellular assays, cells were serum starved by overnight incubation in DMEM (containing 0.2% serum).
# Glucose uptake activity was analyzed by measuring the uptake of 2-deoxy-D-[^3H] glucose as described previously (Sakoda et al. (1999) Diabetes, 48:1365-1371). Briefly, confluent 3T3-L1 adipocytes grown in 6-well plates were washed twice with serum-free DMEM and incubated with 2 ml of the same medium at 37° C. for 2 hours. The cells were washed 3 times with Krebs-Ringer-HEPES (KRH) buffer and incubated with 2 ml KRH buffer at 37° C. for 30 minutes. Insulin (6 nM) and/or Cr(pa)3 (0-25 μM) were then added to adipocytes accompanying the procedure of differentiation. Glucose uptake was initiated by the addition of 0.1 ml KRH buffer and 2-deoxy-D-[^3H] glucose (0.2 μCi/ml) and 5 mM glucose as final concentrations. Glucose uptake was terminated by washing the cells three times with cold PBS. The cells were lysed overnight with 1 ml 0.5M NaOH and 0.1% SDS (w/v). The radioactivity retained by the cell lysates was determined by a scintillation counter (Beckmann LC 6000IC) and normalized to protein amount measured with a Micro BCA Protein Assay Kit (Pierce Chemical, Rockford, Ill.).
substance,measurement,value
insulin,increase in glucose uptake by adipocytes,fourfold
